Data on 25 molecules can be found in US12570642B2, “GLP-IR modulating compounds” (Gilead Sciences, Inc., priority 2021, dated 2026).

In this test the target is GLP-1R (Homo sapiens, UniProt P43220). Nature of the test: GLP-1R Activation - cAMP Assay. The format is cell-based. The note with it: cAMP increase in CHO cells stably expressing GLP-1R; each compound run on one of the two cAMP assays (Assay 1 or Assay 2, not specified). The method, boiled down: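 cAMP rise read by HTRF after 30 min agonist exposure (10-point titration, 37 °C) in HBSS/20 mM Hepes/0.1% BSA, following 1 h pre-incubation. Cells: stable GLP-1R CHO line, 1,000/well, seeded overnight. Sigmoidal fit of response vs log concentration gives EC50.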
Sequence of GLP-1R (P43220 24-463): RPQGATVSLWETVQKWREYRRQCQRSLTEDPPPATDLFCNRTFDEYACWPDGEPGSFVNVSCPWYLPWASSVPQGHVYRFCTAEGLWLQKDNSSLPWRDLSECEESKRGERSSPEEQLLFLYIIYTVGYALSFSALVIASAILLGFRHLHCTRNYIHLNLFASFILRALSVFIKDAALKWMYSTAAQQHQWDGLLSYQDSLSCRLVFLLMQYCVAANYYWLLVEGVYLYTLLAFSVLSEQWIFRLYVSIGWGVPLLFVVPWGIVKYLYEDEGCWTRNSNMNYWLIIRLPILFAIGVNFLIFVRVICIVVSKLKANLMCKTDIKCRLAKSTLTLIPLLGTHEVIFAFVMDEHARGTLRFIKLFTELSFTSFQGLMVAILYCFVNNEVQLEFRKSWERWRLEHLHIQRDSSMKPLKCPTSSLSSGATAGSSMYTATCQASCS

For orientation: EC50 means the concentration giving half of the maximal effect. With `COC[C@H]1COC[C@H]1n1c(Cc2cc(F)c(-c3cccc(OCc4ccc(C#N)cc4)n3)cc2F)nc2ccc(C(=O)O)cc21` [Example 468, 2-(4-(6-((4-cyanobenzyl)oxy)pyridin-2-yl)-2,5-difluorobenzyl)-1-((3S,4S)-4-(methoxymethyl)tetrahydrofuran-3-yl)-1H-benzo[d]imidazole-6-carboxylic acid], a half-maximal response (EC50) required 0.118 nM.
For `Cc1cc(Cc2nc3c(F)cc(C(=O)O)cc3n2[C@@H]2COCC2(C)C)c(F)cc1-c1cccc(OCc2ccc(C#N)cc2F)n1` [Example 208, (S)-2-(4-(6-((4-cyano-2-fluorobenzyl)oxy)pyridin-2-yl)-2-fluoro-5-methylbenzyl)-1-(4,4-dimethyltetrahydrofuran-3-yl)-4-fluoro-1H-benzo[d]imidazole-6-carboxylic acid], a half-maximal effect (EC50) was put at 0.249 nM. This EC50 lies about 2.1-fold higher than the previous one.
In turn, `COCCn1c(Cc2c(F)cc(-c3cccc(OCc4ccc(C#N)cc4)n3)c(F)c2F)nc2ccc(C(=O)O)cc21` [Example 281, 2-(4-(6-((4-cyanobenzyl)oxy)pyridin-2-yl)-2,3,6-trifluorobenzyl)-1-(2-methoxyethyl)-1H-benzo[d]imidazole-6-carboxylic acid] yielded an EC50 of 0.655 nM.
The molecule `N#Cc1ccc(COc2cccc(-c3cc(F)c(Cc4nc5ccc(C(=O)O)cc5n4C4CCCC4)cc3F)n2)c(F)c1` [Example 6, 2-(4-(6-((4-cyano-2-fluorobenzyl)oxy)pyridin-2-yl)-2,5-difluorobenzyl)-1-cyclopentyl-1H-benzo[d]imidazole-6-carboxylic acid] came in with an EC50 of 8.49 nM.
`CC1(C)COCC1n1c(Cc2cc(F)c(-c3cccc(OCc4cnc(Cl)cc4F)n3)cc2F)nc2ccc(C(=O)O)cc21` (stereo not shown) [Example 295, 2-(4-(6-((6-chloro-4-fluoropyridin-3-yl)methoxy)pyridin-2-yl)-2,5-difluorobenzyl)-1-(4,4-dimethyltetrahydrofuran-3-yl)-1H-benzo[d]imidazole-6-carboxylic acid] came in with an EC50 of 0.042 nM.
Molecule `COCCn1c(Cc2ccc(-c3ccc(F)c(OCc4cnc(-n5ccnn5)cc4Cl)n3)cc2F)nc2ccc(C(=O)O)cc21` [Example 155, 2-(4-(6-((4-chloro-6-(1H-1,2,3-triazol-1-yl)pyridin-3-yl)methoxy)-5-fluoropyridin-2-yl)-2-fluorobenzyl)-1-(2-methoxyethyl)-1H-benzo[d]imidazole-6-carboxylic Acid] displayed an EC50 of 0.416 nM.
`CC1(C)COCC1n1c(Cc2ccc(-c3cccc(OCc4ccc(C#N)cc4F)n3)cc2F)nc2ccc(C(=O)O)cc21` (stereo not shown) [Example 384, 2-(4-(6-((4-cyano-2-fluorobenzyl)oxy)pyridin-2-yl)-2-fluorobenzyl)-1-(4,4-dimethyltetrahydrofuran-3-yl)-1H-benzo[d]imidazole-6-carboxylic acid] showed an EC50 of 0.205 nM. Compared with the last molecule, the EC50 is about 2-fold lower.
Molecule `CC1(C)COC[C@H]1n1c(Cc2cc(F)c(-c3cccc(OCc4ccc(Cl)cc4C#N)n3)cc2F)nc2ccc(C(=O)O)cc21` [Example 449, (S)-2-(4-(6-((4-chloro-2-cyanobenzyl)oxy)pyridin-2-yl)-2,5-difluorobenzyl)-1-(4,4-dimethyltetrahydrofuran-3-yl)-1H-benzo[d]imidazole-6-carboxylic acid] came in with an EC50 of 0.021 nM.
`CC1(C)COC[C@H]1n1c(Cc2cc(F)c(-c3ccc(F)c(OCc4cnc(-n5ccnn5)cc4Cl)n3)cc2F)nc2ccc(C(=O)O)cc21` [Example 160, (S)-2-(4-(6-((4-chloro-6-(1H-1,2,3-triazol-1-yl)pyridin-3-yl)methoxy)-5-fluoropyridin-2-yl)-2,5-difluorobenzyl)-1-(4,4-dimethyltetrahydrofuran-3-yl)-1H-benzo[d]imidazole-6-carboxylic Acid]: it took 0.035 nM to reach a half-maximal effect (EC50).
Molecule `N#Cc1ccc(COc2cccc(-c3cc(F)c(Cc4nc5ccc(C(=O)O)cc5n4[C@H]4COC[C@@H]4C(F)F)cc3F)n2)c(F)c1` (single isomer, unassigned) [Example 262] gave a half-maximal effective concentration (EC50) of 1.07 nM.
For the molecule `CC1(C)COC[C@H]1n1c(Cc2cc(F)c(-c3nccc(OCc4ccc(C#N)cc4F)n3)cc2F)nc2c(F)cc(C(=O)O)cc21` [Example 206, (S)-2-(4-(4-((4-cyano-2-fluorobenzyl)oxy)pyrimidin-2-yl)-2,5-difluorobenzyl)-1-(4,4-dimethyltetrahydrofuran-3-yl)-4-fluoro-1H-benzo[d]imidazole-6-carboxylic acid], the EC50 amounted to 0.191 nM.
With `CC1(C)COC[C@@H]1n1c(Cc2cc(F)c(-c3cccc(OCc4ccc(Cl)cc4)n3)cc2F)nc2ccc(C(=O)O)cc21` (single isomer, unassigned) [Example 385B], the EC50 came out at 1.12 nM. Against the preceding molecule, the EC50 is about 5.9-fold higher.
For `N#Cc1ccc(COc2cccc(-c3cc(F)c(Cc4nc5ccc(C(=O)O)cc5n4[C@@H]4COC[C@H]4C(F)F)cc3F)n2)c(F)c1` (single isomer, unassigned) [Example 261] the value was 4.08 nM; for `CC(C)COCCn1c(Cc2cc(F)c(-c3cccc(OCc4ccc(Cl)cc4F)n3)cc2F)nc2ccc(C(=O)O)cc21` [Example 566, 2-(4-(6-((4-chloro-2-fluorobenzyl)oxy)pyridin-2-yl)-2,5-difluorobenzyl)-1-(2-isobutoxyethyl)-1H-benzo[d]imidazole-6-carboxylic acid], 4.09 nM; for `CC1(C)COC[C@H]1n1c(Cc2cc(F)c(-c3ccc(F)c(OCc4ccc(C#N)cc4)n3)cc2F)nc2ccc(C(=O)O)cc21` [Example 188, (S)-2-(4-(6-((4-cyanobenzyl)oxy)-5-fluoropyridin-2-yl)-2,5-difluorobenzyl)-1-(4,4-dimethyltetrahydrofuran-3-yl)-1H-benzo[d]imidazole-6-carboxylic acid], 0.032 nM.
In turn, `Cc1cc(Cc2nc3ccc(C(=O)O)cc3n2[C@@H]2COCC2(C)C)c(Cl)cc1-c1cccc(OCc2ccc(C#N)cc2F)n1` [Example 141, (S)-2-(2-chloro-4-(6-((4-cyano-2-fluorobenzyl)oxy)pyridin-2-yl)-5-methylbenzyl)-1-(4,4-dimethyltetrahydrofuran-3-yl)-1H-benzo[d]imidazole-6-carboxylic Acid] showed an EC50 of 0.079 nM.
The value for `COc1cc(C#N)ccc1COc1cccc(-c2cc(F)c(Cc3nc4ccc(C(=O)O)cc4n3[C@@H]3COCC3(C)C)cc2F)n1` [Example 461, (S)-2-(4-(6-((4-cyano-2-methoxybenzyl)oxy)pyridin-2-yl)-2,5-difluorobenzyl)-1-(4,4-dimethyltetrahydrofuran-3-yl)-1H-benzo[d]imidazole-6-carboxylic acid] was 0.067 nM; that for `CC1(C)COC[C@H]1n1c(Cc2cc(F)c(-c3ccc(F)c(OCc4ccc(Cl)cc4Cl)n3)cc2F)nc2ccc(C(=O)O)cc21` [Example 398, (S)-2-(4-(6-((2,4-dichlorobenzyl)oxy)-5-fluoropyridin-2-yl)-2,5-difluorobenzyl)-1-(4,4-dimethyltetrahydrofuran-3-yl)-1H-benzo[d]imidazole-6-carboxylic acid] was 0.217 nM; that for `CC1(C)COC[C@H]1n1c(Cc2cc(F)c(-c3cccc(OCc4ccc(-n5cncn5)cc4)n3)cc2F)nc2ccc(C(=O)O)cc21` [Example 448, (S)-2-(4-(6-((4-(1H-1,2,4-triazol-1-yl)benzyl)oxy)pyridin-2-yl)-2,5-difluorobenzyl)-1-(4,4-dimethyltetrahydrofuran-3-yl)-1H-benzo[d]imidazole-6-carboxylic acid] was 0.352 nM.
`COCCn1c(Cc2cc(F)c(-c3cccc(OCc4ccc(-c5cnn(C)c5)nc4)n3)cc2F)nc2ccc(C(=O)O)cc21` [Example 108, 2-(2,5-difluoro-4-(6-((6-(1-methyl-1H-pyrazol-4-yl)pyridin-3-yl)methoxy)pyridin-2-yl)benzyl)-1-(2-methoxyethyl)-1H-benzo[d]imidazole-6-carboxylic Acid] came in with an EC50 of 3.28 nM.
The value for `CC1(C)COCC1n1c(Cc2cc(F)c(-c3ccc(F)c(OCc4ccc(Cl)cc4F)n3)cc2F)nc2c(F)cc(C(=O)O)cc21` (stereo not shown) [Example 347, 2-(4-(6-((4-chloro-2-fluorobenzyl)oxy)-5-fluoropyridin-2-yl)-2,5-difluorobenzyl)-1-(4,4-dimethyltetrahydrofuran-3-yl)-4-fluoro-1H-benzo[d]imidazole-6-carboxylic acid] was 0.132 nM; that for `CC1(C)COC[C@H]1n1c(Cc2ccc(-c3nc(OCc4ccc(C#N)cc4F)ccc3F)cc2F)nc2ccc(C(=O)O)cc21` [Example 364, (S)-2-(4-(6-((4-cyano-2-fluorobenzyl)oxy)-3-fluoropyridin-2-yl)-2-fluorobenzyl)-1-(4,4-dimethyltetrahydrofuran-3-yl)-1H-benzo[d]imidazole-6-carboxylic acid] was 0.158 nM; that for `Cc1cc(Cc2nc3ccc(C(=O)O)cc3n2[C@@H]2COCC2(C)C)c(F)cc1-c1cccc(OCc2ccc(C#N)cc2F)n1` [Example 278, (S)-2-(4-(6-((4-cyano-2-fluorobenzyl)oxy)pyridin-2-yl)-2-fluoro-5-methylbenzyl)-1-(4,4-dimethyltetrahydrofuran-3-yl)-1H-benzo[d]imidazole-6-carboxylic acid] was 0.085 nM.
`O=C(O)c1ccc2nc(Cc3cc(F)c(-c4cccc(OCc5ccc6c(c5)CN(C(=O)C5CC5)C6)n4)cc3F)n(C[C@@H]3CCO3)c2c1` [Example 520, (S)-2-(4-(6-((2-(cyclopropanecarbonyl)isoindolin-5-yl)methoxy)pyridin-2-yl)-2,5-difluorobenzyl)-1-(oxetan-2-ylmethyl)-1H-benzo[d]imidazole-6-carboxylic acid] gave an EC50 of 0.27 nM.
On to `CC1(C)COC[C@H]1n1c(Cc2cc(F)c(-c3cccc(OCc4ccc(C#N)cc4F)n3)cc2F)nc2ccc(C(=O)O)nc21` [Example 439, (S)-2-(4-(6-((4-cyano-2-fluorobenzyl)oxy)pyridin-2-yl)-2,5-difluorobenzyl)-3-(4,4-dimethyltetrahydrofuran-3-yl)-3H-imidazo[4,5-b]pyridine-5-carboxylic acid], for which the EC50 was found to be 0.171 nM.
